Measurements: US10183914B2 (BAYER CROPSCIENCE AKTIENGESELLSCHAFT, priority 2014, dated 2019)

How the values were obtained:
[1] = tested on: Triticum aestivum (spring); assay: Post-emergence herbicidal effect and crop plant compatibility; assay type: in vivo; settings: visual scoring after about 3 weeks
How it was run: (§1)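 Visual scoring about 3 weeks after treatment rated damage against untreated plants, from 0% (like control) to 100% (dead). Treatment was a post-emergence foliar spray of WP/EC formulations in 600–800 L/ha water with 0.2% wetting agent. Plants were sprayed at the one-leaf stage, 2–3 weeks after sowing in sandy loam.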

Zea mays [2] = assay: as above; assay type: in vivo; settings: visual scoring after about 3 weeks
How it was run: as §1

Oryza sativa [3] = assay: as above; assay type: in vivo; settings: visual scoring after about 3 weeks
How it was run: as §1

[4] = logp (HCOOH), physicochemical characterization
Alopecurus myosuroides [5] = assay: Pre-emergence herbicidal effect; assay type: in vivo; settings: 3 weeks
How it was run: (§2)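 Percent herbicidal effect or crop damage, judged visually 3 weeks after surface treatment of soil-covered seeds. Treatment used WP or EC formulations diluted in water, 600 to 800 L/ha, plus 0.2% wetting agent.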

Stellaria media = assay: Pre-emergence herbicidal effect; assay type: in vivo; settings: 3 weeks
How it was run: as §2

Amaranthus retroflexus = assay: Pre-emergence herbicidal effect; assay type: in vivo; settings: 3 weeks
How it was run: as §2

Veronica persica = assay: Pre-emergence herbicidal effect; assay type: in vivo; settings: 3 weeks
How it was run: as §2

Setaria viridis [6] = assay: Pre-emergence herbicidal effect; assay type: in vivo; settings: 3 weeks
How it was run: as §2

Matricaria inodora = assay: Pre-emergence herbicidal effect; assay type: in vivo; settings: 3 weeks
How it was run: as §2

Echinochloa crus-galli [7] = assay: Pre-emergence herbicidal effect; assay type: in vivo; settings: 3 weeks
How it was run: as §2

Lolium multiflorum [8] = assay: Pre-emergence herbicidal effect; assay type: in vivo; settings: 3 weeks
How it was run: as §2

Viola tricolor = assay: Pre-emergence herbicidal effect; assay type: in vivo; settings: 3 weeks
How it was run: as §2

Polygonum convolvulus = assay: Pre-emergence herbicidal effect; assay type: in vivo; settings: 3 weeks
How it was run: as §2

Avena fatua [9] = assay: Pre-emergence herbicidal effect; assay type: in vivo; settings: 3 weeks
How it was run: as §2

Ipomoea purpurea [10] = assay: Post-emergence herbicidal effect; assay type: in vivo; settings: scoring after about 3 weeks
How it was run: as §1

Echinochloa crus-galli [11] = assay: Post-emergence herbicidal effect; assay type: in vivo; settings: visual scoring after about 3 weeks
How it was run: as §1

Avena fatua [12] = assay: Post-emergence herbicidal effect; assay type: in vivo; settings: 320 g/ha, visual scoring after about 3 weeks
How it was run: as §1

Zea mays [13] = assay: Pre-emergence herbicidal effect and crop plant compatibility; assay type: in vivo; settings: 3 weeks
How it was run: as §2

Oryza sativa [14] = assay: as above; assay type: in vivo; settings: 3 weeks
How it was run: as §2

Abutilon theophrasti = assay: Pre-emergence herbicidal effect; assay type: in vivo; settings: 320 g/ha, 3 weeks
How it was run: as §2

Alopecurus myosuroides [15] = assay: Post-emergence herbicidal effect; assay type: in vivo; settings: 320 g/ha, visual scoring after about 3 weeks
How it was run: as §1

Lolium multiflorum [16] = assay: Post-emergence herbicidal effect; assay type: in vivo; settings: visual scoring after about 3 weeks
How it was run: as §1

[17] = tested on: Triticum aestivum (spring); assay: Pre-emergence herbicidal effect and crop plant compatibility; assay type: in vivo; settings: 3 weeks
How it was run: as §2

Ipomoea purpurea [18] = assay: Pre-emergence herbicidal effect; assay type: in vivo; settings: 320 g/ha, 3 weeks
How it was run: as §2

Setaria viridis [19] = assay: Post-emergence herbicidal effect; assay type: in vivo; settings: 320 g/ha (dose by row order of upper half), scoring after about 3 weeks
How it was run: as §1

Compound	post-emergence efficacy TRZAS ([1]; 80 g/ha) [%]	post-emergence efficacy TRZAS ([1]; 320 g/ha) [%]	post-emergence efficacy ZEAMX (Zea mays [2]; 80 g/ha) [%]	post-emergence efficacy ORYSA (Oryza sativa [3]; 80 g/ha) [%]	post-emergence efficacy ORYSA (Oryza sativa [3]; 320 g/ha) [%]	logp (HCOOH) [4]	ALOMY herbicidal activity in percent (Alopecurus myosuroides [5]; 80 g/ha) [%]	ALOMY herbicidal activity in percent (Alopecurus myosuroides [5]; 320 g/ha) [%]	STEME herbicidal activity in percent (Stellaria media; 80 g/ha) [%]	STEME herbicidal activity in percent (Stellaria media; 320 g/ha) [%]	AMARE herbicidal activity in percent (Amaranthus retroflexus; 80 g/ha) [%]	AMARE herbicidal activity in percent (Amaranthus retroflexus; 320 g/ha) [%]	VERPE herbicidal activity in percent (Veronica persica; 80 g/ha) [%]	VERPE herbicidal activity in percent (Veronica persica; 320 g/ha) [%]	SETVI herbicidal activity in percent (Setaria viridis [6]; 320 g/ha) [%]	MATIN herbicidal activity in percent (Matricaria inodora; 320 g/ha) [%]	ECHCG herbicidal activity in percent (Echinochloa crus-galli [7]; 320 g/ha) [%]	LOLMU herbicidal activity in percent (Lolium multiflorum [8]; 320 g/ha) [%]	VIOTR herbicidal activity in percent (Viola tricolor; 320 g/ha) [%]	POLCO herbicidal activity in percent (Polygonum convolvulus; 320 g/ha) [%]	further results
Cc1ccc2c(c1)[C@H](Nc1ncc3c(n1)CC(C)CC3=O)[C@@H](C)C2 (some centres unmarked) [2.44]	0	0	10	0	0	oily; logp (HCOOH): 3.90;	80	100	100	100	100	100	100	100	100	100	100	100	100	100	SETVI herbicidal activity in percent (Setaria viridis [6]; 80 g/ha): 100%; MATIN herbicidal activity in percent (Matricaria inodora; 80 g/ha): 90%; ECHCG herbicidal activity in percent (Echinochloa crus-galli [7]; 80 g/ha): 90%; LOLMU herbicidal activity in percent (Lolium multiflorum [8]; 80 g/ha): 100%; VIOTR herbicidal activity in percent (Viola tricolor; 80 g/ha): 100%; POLCO herbicidal activity in percent (Polygonum convolvulus; 80 g/ha): 90%; AVEFA herbicidal activity in percent (Avena fatua [9]; 80 g/ha): 0%; AVEFA herbicidal activity in percent (Avena fatua [9]; 320 g/ha): 80%; post-emergence efficacy PHBPU (Ipomoea purpurea [10]; 80 g/ha (dose by row order of upper half)): 100%; post-emergence efficacy PHBPU (Ipomoea purpurea [10]; 320 g/ha (dose by row order of upper half)): 100%; post-emergence efficacy ECHCG (Echinochloa crus-galli [11]; 80 g/ha): 100%; post-emergence efficacy ECHCG (Echinochloa crus-galli [11]; 320 g/ha): 100%; post-emergence efficacy AVEFA (Avena fatua [12]): 90%; ZEAMX herbicidal activity in percent (Zea mays [13]; 80 g/ha): 10%; ORYSA herbicidal activity in percent (Oryza sativa [14]; 80 g/ha): 20%
Cc1ccc2c(c1)[C@H](Nc1ncc3c(n1)CC(C(F)(F)F)CC3=O)[C@@H](C)C2 (some centres unmarked) [2.46]	10	10	0	10	20	oily; logp (HCOOH): 3.24; 1H-NMR (CDCl3, 400 MHZ, δ in ppm): 1.25 (t, 3H, CH3);	90	90	100	100	90	100	100	100	90	100	100	100	100	100	post-emergence efficacy ZEAMX (Zea mays [2]; 320 g/ha): 0%; ABUTH herbicidal activity in percent (Abutilon theophrasti): 80%; SETVI herbicidal activity in percent (Setaria viridis [6]; 80 g/ha): 90%; MATIN herbicidal activity in percent (Matricaria inodora; 80 g/ha): 90%; ECHCG herbicidal activity in percent (Echinochloa crus-galli [7]; 80 g/ha): 90%; LOLMU herbicidal activity in percent (Lolium multiflorum [8]; 80 g/ha): 100%; VIOTR herbicidal activity in percent (Viola tricolor; 80 g/ha): 100%; post-emergence efficacy ALOMY (Alopecurus myosuroides [15]): 100%; post-emergence efficacy LOLMU (Lolium multiflorum [16]; 80 g/ha): 80%; post-emergence efficacy LOLMU (Lolium multiflorum [16]; 320 g/ha): 100%; TRZAS herbicidal activity in percent ([17]; 80 g/ha): 0%; TRZAS herbicidal activity in percent ([17]; 320 g/ha): 0%; ZEAMX herbicidal activity in percent (Zea mays [13]; 80 g/ha): 0%; ZEAMX herbicidal activity in percent (Zea mays [13]; 320 g/ha): 0%
O=C1CCCc2nc(NC3CCc4ccccc43)ncc21 (racemic) [2.91]	–	–	–	–	0	oily; logp (HCOOH): 2.62; 1H-NMR (CDCl3, 400 MHZ, δ in ppm): 1.25 (m, 1H, 1H	–	90	–	100	–	100	–	100	100	100	100	100	100	80	ABUTH herbicidal activity in percent (Abutilon theophrasti): 100%; PHBPU herbicidal activity in percent (Ipomoea purpurea [18]): 100%; AVEFA herbicidal activity in percent (Avena fatua [9]; 320 g/ha): 80%; post-emergence efficacy SETVI (Setaria viridis [19]): 90%; post-emergence efficacy ECHCG (Echinochloa crus-galli [11]; 320 g/ha): 100%; post-emergence efficacy LOLMU (Lolium multiflorum [16]; 320 g/ha): 100%; ZEAMX herbicidal activity in percent (Zea mays [13]; 320 g/ha): 20%; ORYSA herbicidal activity in percent (Oryza sativa [14]; 320 g/ha): 20%
